Conditions: Liquid, DSC

CCCCCCCC/C=C\CCCCCCCC(=O)O [(Z)-9-octadecenoic acid]
Conditions	vapor or sublimation pressure [kPa]
496.7 K	1.333
513.1 K	2.666
524.7 K	4
532.1 K	5.333
538.8 K	6.666
543.8 K	7.999
547.4 K	9.333

CCCCCCCCCCCC(=O)O [dodecanoic acid]
Conditions	vapor or sublimation pressure [kPa]
444.6 K	1.333
458.9 K	2.666
468.5 K	4
475 K	5.333
479.6 K	6.666
484.8 K	7.999
490.5 K	9.333

CCCCCCCCCCCCCCCC(=O)O [hexadecanoic acid]
Conditions	vapor or sublimation pressure [kPa]
483.3 K	1.333
498.6 K	2.666
509 K	4
517.3 K	5.333
523.4 K	6.666
527.9 K	7.999
533.4 K	9.333

CCCCCCCCCCCCCCCCCC(=O)O [octadecanoic acid]
Conditions	vapor or sublimation pressure [kPa]
501.3 K	1.333
519.1 K	2.666
528.9 K	4
535.9 K	5.333
543.7 K	6.666
548.7 K	7.999
553.2 K	9.333

CCCCCCCCCCCCCC(=O)O [tetradecanoic acid]
Conditions	vapor or sublimation pressure [kPa]
464.6 K	1.333
480.8 K	2.666
489.5 K	4
497.2 K	5.333
503.1 K	6.666
508.2 K	7.999
512.6 K	9.333

Source: the NIST ThermoML archive (doi:10.1016/j.tca.2012.07.034)
